Assay [1] concerns MCF-7 cells. The assay is described as follows: Cell proliferation (MTS) analysis, MCF-7. Format: cell-based, human. The following applies: MCF-7, 48 hours after PAA treatment. Here is the method: (FIGS. 1A, B and C) show chemical structures of PAA and viability of MCF-7 and MDA-MB-231 cells depending on PAA. MCF-7 and MDA-MB-231 cells were treated with increasing concentrations of PAA for 48 hours. Anti-proliferation effects of PAA were measured by MTS analysis.
Proliferation rates of MCF-7 and MDA-MB-231 cells were measured using a CellTiter 96® aqueous one solution cell proliferation kit. MCF-7 and MDA-MB-231 cells were cultured in the presence of PAA (0.1, 0.2, 0.5, 1 and 2 mM) on a 96-well plate for 48 hours. In accordance with the manufacturer's protocol, absorbance at 490 nm was determined using a 96-well plate reader (Dynex Revelation, Dynex Ltd., Billingshurst, UK). All data was determined by measurement of three sets.
In order to investigate anti-proliferation effects of PAA in human breast cancer cell lines, i.e., MCF-7 and MDA-MB-231, the cancer cell lines were treated with different concentrations of PAA and then MTS analysis was conducted.

For assay [2], the system named is MDA-MB-231 cells. The assay can be described thus: Analysis of apoptosis by fluorescent staining (Hoechst 33258). In kind it is cell-based, human. The following applies: MDA-MB-231, Hoechst 33258 staining. Here is the method:
(FIGS. 1D, E and F) show effects of PAA on apoptosis of breast cancer cells. MDA-MB-231 cells were treated with PAA for 24 hours, and apoptotic cells were analyzed by FACS using an Annexin V-PI staining kit. Caspase 3/7 activity in MDA-MB-231 cells was analyzed using a Caspase-Gloss 3/7 kit. By fluorescent staining, apoptotic cells were analyzed and nuclei thereof were stained with Hoechst 33258 in breast cancers (magnified, 200×) (FIG. 1);
MDA-MB-231 cells were treated with 200 μm of PAA for 24 hours and were cultured in a Hoechst 33258 solution (10 mg/mL) at 37° C. for 30 minutes.

Assay [3] has as its system Nanog, Sox2, Oct4 and CD44 genes. The assay is described as follows: Real-time PCR of CSC markers in mammospheres. In kind it is cell-based, human. To be noted: β-actin internal control. Here is the method: In accordance with the manufacturer's instructions, the level of transcriptome was measured with one step SYBR PrimeScript RT-PCR kit (Takara, Tokyo, Japan) using SYBR green as a double-stranded DNA-specific dye. One-step RT-PCR reaction was conducted in the final volume of 20 μl per reaction containing 1 μg of total RNA, 10 μl of 2× one step SYBR RT-PCR buffer IV, 1 μl of PrimeScript 1 step enzyme mix II, and 10 μM of PCR forward primers and PCR reverse primers for CD44, NANOG, OCT4, SOX2, and β-actin. The forward and reverse primers are as follow: […]
Relative expression amounts of mRNAs of target genes were calculated using a comparative CT method. At least three independent PCR procedures were conducted in accordance with statistical analysis. PCR products were normalized with β-actin genes, as an internal control.

For assay [4], the system named is nuclear STAT3 proteins (phosphorylation). The assay is described as follows: Western blotting of mammosphere nuclear proteins, pStat3. In kind it is cell-based, human. To be noted: MCF-7-derived mammospheres, compared to the control group. The protocol:
(§1) The proteins isolated from mammospheres of PAA-treated MCF-7 were separated on 10% SDS-PAGE and transferred to a polyvinylidene difluoride membrane (Millipore, Bedford, Mass., USA). The membrane was blocked in 5% skim milk-containing PBS-Tween 20 (0.1%, v/v) for 30 minutes at room temperature. The blot was cultured at 4° C. in a blocking solution containing primary antibodies overnight. The used primary antibodies were as follows: Stat3, p65, Lamin B, and phospho-Stat3 (Cell Signaling, Beverly, Mass., USA). β-actin antibodies (Santa Cruz Biotechnology) were used as a loading control group. After washing with PBS-Tween 20 (0.1%, v/v), the blot was cultured in a horseradish peroxidase-conjugated secondary antibody and subjected to photosensitive treatment with a chemiluminescent detection kit (Santa Cruz Biotechnology).
(§2) In order to investigate cellular functions of PAA, STAT3 and NF-κB pathways were investigated in MCF-7-derived mammospheres subjected to treatment with PAA. As compared to the control group, PAA reduced phosphorylation of nuclear STAT3 proteins.
Background: In western blotting, separated proteins are transferred to a membrane and probed.

For assay [5], the system named is nuclear p65. The assay can be described thus: Western blotting of mammosphere nuclear proteins, p65. Format: cell-based, human. To be noted: MCF-7-derived mammospheres. The protocol:
as §1, §2

The target of assay [6] is T1, Stat3 / biotin-labelled Stat probe (Homo sapiens, UniProt P40763).
T1 construct: EMSA (electrophoretic mobility-shift assay) of PAA-treated MDA-MB-231 cell-derived mammosphere nuclear lysates; endogenous in cells; host or cells: MDA-MB-231 cell-derived mammospheres (nuclear lysate)
The assay can be described thus: Electrophoretic mobility shift assay (EMSA) with Stat3 probe. Format: cell-based. The following applies: PAA-treated mammosphere nuclear extracts. The protocol: Nuclear lysates were cultured in biotin-labeled Stat3 probes and were isolated by 6% PAGE;
Lane 1: probe alone; Lane 2: probe+nuclear extracts; Lane 3: probe+PAA-treated nuclear extracts; Lane 4: self-competition; Lane 5: nuclear extracts cultured together with mutant STAT3 probe. The PAA reduced DNA/STAT3 interactions in mammosphere nuclear lysates;
In accordance with the manufacturer's instructions, EMSAs were detected using a chemiluminescent EMSA kit (Thermoscientific, IL, USA) commercially available from Lightshift. Biotin-top and bottom probe parts (5′-[…]-Biotin3′, SEQ NO. 11 and 5′-[…]-Biotin3′, SEQ NO. 12) of Stat3 probe were annealed and the double-stranded oligonucleotide was end-labelled with biotin.
Biotin-labelled DNA probes were cultured together with PAA-treated nuclear proteins in a total volume of 20 μl of EMSA buffer containing 1 μg/μl poly[dI-dC]) for 20 minutes at room temperature. The reaction mixture was subjected to electrophoresis on 4% polyacrylamide nondenaturing gel at 4° C. in the presence of 0.5×TBE (45 mM Tris borate and 1 mM EDTA) and visualized using a chemiluminescence nucleic acid detection kit (Thermoscientific, IL, USA).
In addition, bonding between PAA-treated nuclear extracts and Stat3 DNAs was analyzed using a biotin-labelled Stat-conjugated probe that bonds to STAT3 at a high affinity. […]

The test system of assay [7] is HT-29 cells. The assay is described as follows: MTS analysis in human colorectal cancer cells. In kind it is cell-based. To be noted: HT-29, MTS, PAA at a concentration up to 2 mM. Here is the method: Anti-proliferation effects of PAA in human colorectal cancer cell lines were measured by MTS analysis.
Next, in order to investigate anti-proliferation effects of PAA on human colorectal cancer cell lines, i.e., HT-29 cells, after treatment with PAA at different concentrations, MTS analysis was conducted.

1 compound from patent US11324706B2, “Composition for inhibiting growth of breast cancer stem cells containing phenylacetaldehyde” (JEJU NATIONAL UNIVERSITY INDUSTRY-ACADEMIC COOPERATION …, priority 2016, dated 2022) can be followed below.

Molecules are shown by their SMILES. Entries after “also recorded” stand apart in the source; their conditions may differ.

T1 sequence (P40763 2-770 limits assumed): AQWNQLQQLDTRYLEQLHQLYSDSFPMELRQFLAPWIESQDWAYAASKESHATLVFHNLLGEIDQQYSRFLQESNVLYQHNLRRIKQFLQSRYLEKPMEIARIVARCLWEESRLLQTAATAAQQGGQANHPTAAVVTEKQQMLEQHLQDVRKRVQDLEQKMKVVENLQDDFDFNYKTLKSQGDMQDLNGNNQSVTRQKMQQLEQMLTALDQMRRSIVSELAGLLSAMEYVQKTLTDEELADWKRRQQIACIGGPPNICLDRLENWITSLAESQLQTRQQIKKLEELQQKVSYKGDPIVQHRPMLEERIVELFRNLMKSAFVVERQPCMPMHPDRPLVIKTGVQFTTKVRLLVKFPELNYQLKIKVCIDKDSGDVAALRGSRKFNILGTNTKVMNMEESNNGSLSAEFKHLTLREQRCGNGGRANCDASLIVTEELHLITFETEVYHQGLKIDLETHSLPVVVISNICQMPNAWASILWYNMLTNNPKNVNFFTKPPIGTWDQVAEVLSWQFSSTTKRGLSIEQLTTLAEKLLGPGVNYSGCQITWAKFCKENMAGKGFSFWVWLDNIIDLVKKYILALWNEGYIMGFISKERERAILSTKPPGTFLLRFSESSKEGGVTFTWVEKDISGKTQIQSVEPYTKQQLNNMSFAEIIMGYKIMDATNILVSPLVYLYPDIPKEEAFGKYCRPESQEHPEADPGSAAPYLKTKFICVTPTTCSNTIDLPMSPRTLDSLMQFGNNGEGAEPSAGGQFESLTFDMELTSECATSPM

Take `O=CCc1ccccc1` [PAA, phenylacetaldehyde]: the “PAA concentration at which growth of the cell line was concentration-dependently inhibited” value in assay [1] is at least 200 μm. The “formation of apoptotic bodies” value in assay [2] is on record as “apoptotic bodies were formed”. The “expression of self-renewal genes such as Nanog, Sox2, Oct4, and CD44” value in assay [3] is listed as “reduced”. Also, the “phosphorylation of nuclear STAT3 proteins” value in assay [4] is given as “reduced”. Also, in assay [5], the “protein levels of nuclear p65” value was “did not reduce”. In addition, the “bonding between biotin-labelled Stat probe and Stat3” value in assay [6] is listed as “inhibited”. In addition, the “growth (proliferation) of colorectal cancer cells” value in assay [7] is “did not affect; also recorded: no significant proliferation inhibitory effects”.
